# In patent publication US20250283056A1, “MODIFIED O-[…] USEFUL FOR PRODUCTION OF O-METHYLATED PHENOLIC NATURAL PRODUCTS” (The University of Hong Kong, priority 2024, published 2025):
# Where two headings read alike, the source gives them in different places.
# B1: Sorghum bicolor stilbene O-methyltransferase (SbSOMT), wild type, recombinant (enzyme)
# chain: GSYDSSSSSSNDSSARNEEDESCMFALKLLGGFAVPFTIKAVIELGVMDQLLTAERAMSAEELVAAAVAAQLPRPEVACTMVDRLLRFLASHSVVRCTTEVVVGTDDATTTTCCRRSYAASPVCKWFARNGVEDSVLPLGMMILNKTFLDSWQNITDAVLEGAAPFEKTYGMPMFEYLSTNGPLNTVFHEAMANHSMIITKKLLKFFRGFEGLDVLVDVGGGNGTTLQMIRGQYKNMRGINYDLPHVIAQAAPVEGVEHVGGSMFDNIPRGNAVLLKWILHDWDDKACIKILKNCYTALHVRGKVIVLEYVVPDEPEPTLAAQGAFELDLTMLVTFGSGKERTQREFSELAMEAGFSREFKATYIFANVWALEFTK
# notes: One protomer is described here; also called SbSOMT, WT; Sb07g004710
# Legend:
# [1] = system: SbSOMT F337N; assay: Catalytic assay, SbSOMT F337N mutant protein; assay type: biochemical, Sorghum bicolor; conditions: SbSOMT F337N vs WT, resveratrol, one-hour incubation
# Source text: (§1) Data are expressed as yields relative to that of wild-type SbSOMT protein (WT). […] Data are expressed as yields relative to that of wild-type SbSOMT protein (WT). Values refer to means±SD (n=3). Asterisks indicate significant differences between mutant protein and WT (Student's t-test, ***: p<0.001). Tricin was used as an internal standard for quantitation. […] Dots represent individual data points.
# (§2) Desired mutations of SbSOMT were introduced into its construct using specific primers (Table 11). Expression constructs were transformed into Rosetta™ (DE3) competent Escherichia coli cells (Novagen, Germany). Protein expression was induced with 0.1 mM Isopropyl-β-thiogalactopyranoside (IPTG) overnight at 16° C. E. coli cells were harvested, resuspended in lysis buffer (20 mM Tris buffer pH 7.9, 300 mM NaCl, 2.5 mM β-mercaptoethanol), and lysed by sonication. […]
# (§3) For initial screening of OMT activities, purified OMT enzymes (10 μg) were incubated in 100 mM HEPES buffer (pH 7.9), 200 μM S-adenosyl-L-methionine (SAM) and 100 μM of phenylpropanoid or stilbene substrates (final volume 200 μl) at 30° C. for 2 h. Enzyme kinetics were determined by incubating 1 μg protein with 100 mM HEPES buffer (pH 7.9), 300 μM SAM, and stilbene concentrations ranging from 5 to 200 μM at 30° C. for 5 min. […]
# [2] = system: SsCOMT; assay: In vitro OMT enzyme assay, recombinant SsCOMT; assay type: biochemical, Saccharum spontaneum; conditions: two-hour incubation with 100 μM substrate
# Description: (§4) To screen for OMT activities, purified stilbene products of enzyme assays were separated by a Synergi C18 column (Synergi 4μ Fusion RP 80 Å, 50×2 mm, Phenomenex, USA) under a flow rate of 0.5 ml min-1 over a 6 min linear gradient of 10%-90% B (described below). […] Meanwhile, purified phenylpropanoid products of enzyme assays were separated on the same column connected to a HP1100 series HPLC system (Agilent Technologies, USA) linked to an AP3200-QTRAP mass spectrometer (AB Sciex, China) operating under the multiple-reaction-monitoring (MRM) mode. To quantify these products, assay products were separated on a Kinetex C18 column (Kinetex 2.6 μm C18 100 Å, 100×2.1 mm, Phenomenex, USA) connected to a HP1100 series HPLC system (Agilent Technologies, USA) linked to an AP3200-QTRAP mass spectrometer (AB Sciex, China) operating under the multiple-reaction-monitoring (MRM) mode. A linear gradient of 10%-90% B under a flow rate of 0.3 ml min-1 over 6 min was used to further enhance sensitivity. Total metabolites from all plant tissues were separated by the same Kinetex C18 column connected to the X500R QTOF-HRMS system. A linear gradient under a flow rate of 0.3 ml min-1 over a 20 min linear gradient of 10%-90% B was used.
# (§5) Reaction products were extracted twice with ethyl acetate. […] All reactions were done in triplicates.
# [3] = molecular target: T1, SbSOMT (Sorghum bicolor, UniProt A0A1B6PFV1); assay: Isothermal titration calorimetry (ITC), SbSOMT wild type; assay type: binding
# Description: (§6) Isothermal titration calorimetry (ITC) assays were conducted with MicroCal iTC200 (Malvern Panalytical, UK). […] Both cell sample and titrant were equilibrated to ITC buffer consisting of 100 mM HEPES pH 7.9 with 2.5% (v/v) PEG 400. For ITC assays involving pterostilbene, PEG 400 concentration was increased to 5% (v/v). Each run incorporated an initial delay of 60 s prior to the first injection (0.5 μl) and spaced 150 s between the subsequent 19 injections (2.0 μl) at 25° C. During the runs, the cell was continuously stirred at 750 rpm by flat paddle. Results were analysed based on the 2nd to 20th injections using the Origin (MicroCal Software, USA) and PEAQ-ITC software (Malvern Panalytical, UK).
# [4] = molecular target: SbSOMT I144N/F337N; assay: ITC, SbSOMT I144N/F337N mutant protein; assay type: binding, Sorghum bicolor
# Description: (§7) Desired mutations of SbSOMT were introduced into its construct using specific primers (Table 11). Expression constructs were transformed into Rosetta™ (DE3) competent Escherichia coli cells (Novagen, Germany). Protein expression was induced with 0.1 mM Isopropyl-β-thiogalactopyranoside (IPTG) overnight at 16° C. E. coli cells were harvested, resuspended in lysis buffer (20 mM Tris buffer pH 7.9, 300 mM NaCl, 2.5 mM β-mercaptoethanol), and lysed by sonication. Crude proteins were loaded onto a HisTrap HP column (Cytiva, USA) connected to a AKTA pure chromatography system (Cytiva, USA). Column was washed with 15 column volumes of lysis buffer with 50 mM imidazole. Proteins were eluted over a gradient of 50-500 mM imidazole. Eluate fractions with the target OMT were pooled, digested with TEV protease, and simultaneously dialyzed against a low salt buffer (20 mM Tris pH 7.9, 50 mM NaCl, 2.5 mM β-mercaptoethanol) overnight at 4° C. The dialyzed sample was filtered and flowed through HisTrap to remove His-tagged components. The flowthrough was then loaded to HiTrap Q FF columns (Cytiva, USA) over a gradient of 50-1000 mM NaCl. […]
# (§8) Isothermal titration calorimetry (ITC) assays were conducted with MicroCal iTC200 (Malvern Panalytical, UK). […] Results were analysed based on the 2nd to 20th injections using the Origin (MicroCal Software, USA) and PEAQ-ITC software (Malvern Panalytical, UK).
# [5] = molecular target: T2, SbSOMT D283A (Sorghum bicolor, UniProt A0A1B6PFV1, D283A); conditions: SbSOMT D283A incubated with resveratrol, one hour
# Source text: as §1, §2, §3
# [6] = molecular target: T3, SbSOMT E342A (Sorghum bicolor, UniProt A0A1B6PFV1, E342A); conditions: SbSOMT E342A incubated with resveratrol, one hour
# Source text: as §1, §2, §3
# [7] = molecular target: SsCOMT; assay: Isothermal titration calorimetry (ITC), SsCOMT wild type; assay type: binding, Saccharum spontaneum; conditions: 25° C., SsCOMT WT, mean ± standard error from curve fitting
# Description: as §6
# [8] = system: SbSOMT H282A; assay: Catalytic assay, SbSOMT H282A mutant protein; assay type: biochemical, Sorghum bicolor; conditions: one-hour incubation
# Source text: as §1, §2, §3
# [9] = molecular target: T1, SbSOMT; assay: In vitro OMT enzyme assay, recombinant SbSOMT; assay type: biochemical; conditions: two-hour incubation with 100 μM resveratrol
# Description: as §4, §5
# [10] = molecular target: SbSOMT I144N (Sorghum bicolor, UniProt A0A1B6PFV1, I144N); assay: biochemical
# Description: (§9) Desired mutations of SbSOMT were introduced into its construct using specific primers (Table 11). Expression constructs were transformed into Rosetta™ (DE3) competent Escherichia coli cells (Novagen, Germany). Protein expression was induced with 0.1 mM Isopropyl-β-thiogalactopyranoside (IPTG) overnight at 16° C. E. coli cells were harvested, resuspended in lysis buffer (20 mM Tris buffer pH 7.9, 300 mM NaCl, 2.5 mM β-mercaptoethanol), and lysed by sonication. Crude proteins were loaded onto a HisTrap HP column (Cytiva, USA) connected to a AKTA pure chromatography system (Cytiva, USA). Column was washed with 15 column volumes of lysis buffer with 50 mM imidazole. Proteins were eluted over a gradient of 50-500 mM imidazole. Eluate fractions with the target OMT were pooled, digested with TEV protease, and simultaneously dialyzed against a low salt buffer (20 mM Tris pH 7.9, 50 mM NaCl, 2.5 mM β-mercaptoethanol) overnight at 4° C. The dialyzed sample was filtered and flowed through HisTrap to remove His-tagged components. The flowthrough was then loaded to HiTrap Q FF columns (Cytiva, USA) over a gradient of 50-1000 mM NaCl. Polishing was achieved via size-exclusion chromatography using the storage buffer (100 mM HEPES pH 7.9, 100 mM NaCl) as mobile phase. SsSTS was purified under the same conditions except that the pH was adjusted to 7.0 for all buffers. Proteins were concentrated by ultrafiltration and flash frozen for storage at −80° C.
# as §6
# [11] = molecular target: SbSOMT H282N/D283A (Sorghum bicolor, UniProt A0A1B6PFV1, D283A/H282N); assay: biochemical
# Description: as §9, §6
# [12] = molecular target: T2, SbSOMT D283A; assay: biochemical
# Description: as §9, §6
# [13] = molecular target: T3, SbSOMT E342A; assay: biochemical
# Description: as §9, §6
# [14] = molecular target: SbSOMT E310A (Sorghum bicolor, UniProt A0A1B6PFV1, E310A); assay: biochemical; assay type: binding; conditions: for Stoichiometry, N: ITC
# Description: as §9, §6
# [15] = system: SbSOMT I144N/F337N; assay: Catalytic assay, SbSOMT I144N/F337N mutant protein; assay type: biochemical, Sorghum bicolor; conditions: resveratrol, one-hour incubation
# Source text: as §1, §2, §3
# [16] = molecular target: T4, SbCOMT (Sorghum bicolor, UniProt Q84X55); assay: Isothermal titration calorimetry (ITC), SbCOMT wild type; assay type: binding
# Description: as §6
# [17] = molecular target: SbSOMT F337N; assay: ITC, SbSOMT F337N mutant protein; assay type: binding, Sorghum bicolor
# Description: as §7, §8
# [18] = system: SbOMT4; assay: In vitro OMT enzyme assay, recombinant SbOMT4; assay type: biochemical, Sorghum bicolor
# Description: as §4, §5
# [19] = molecular target: T4, SbCOMT; assay: In vitro OMT enzyme assay, recombinant SbCOMT; assay type: biochemical
# Description: as §4, §5
# [20] = system: SsSTS; assay: SsSTS enzyme assay; assay type: biochemical, Saccharum spontaneum; conditions: 100 μM starter CoA, 300 μM malonyl-CoA, 30° C., 1 h
# Source text: as §5
# [21] = molecular target: T4, SbCOMT; assay: Enzyme kinetics of SbCOMT; assay type: biochemical; conditions: pinostilbene as substrate
# Source text: as §5
# [22] = molecular target: T1, SbSOMT; assay: Enzyme kinetics of SbSOMT; assay type: biochemical; conditions: pinostilbene as substrate
# Source text: as §5
# [23] = molecular target: the molecule itself; assay: X-ray crystallography, SbSOMT co-crystallised with stilbenes with or without beta-NAD
# Description: Data were analysed using pipelines provided in CCP4 suite⁷⁵. Data reduction was performed using AIMLESS⁷⁶. […] The built models were iteratively refined through automated REFMAC5 refinement and manual refinement in COOT^{81, 82}. Validation and assessment of structure quality were performed using MolProbity and OneDep prior to finalization^{83, 84}.
# [24] = 300 μM SAM, 30° C., 5 min, mean ± SD (n = 3)
molecule,measurement,setting,value
"Oc1ccc(C=Cc2cc(O)cc(O)c2)cc1 [Resveratrol, resveratrol]",less pterostilbene produced compared to WT,[1],97.7%
same,more pinostilbene accumulated compared to WT,[1],50.8%
same,formation of O-methylated product,[2],only small amounts of pinostilbene were generated
same,Kd,[3],4.69 µM
same,Kd,[4],No binding
same,Kd,[4]; listed as resveratrol,undetectable binding affinities
same,pterostilbene formation,[5],failed to generate pterostilbene
same,pterostilbene formation,[6],failed to generate pterostilbene
same,Kd,[7],2.78 ± 0.33 µM
same,catalytic activity with resveratrol,[8],catalytically defective
same,conversion of resveratrol into pterostilbene,[9],about 60%
same,Kd,[10],152 ± 31.1 µM
same,Kd,"[10]; SbSOMT mutant I144N, N fixed at 0.6 to estimate the Kd, ± SE",significantly weakened binding
same,Kd,[11],32.9 µM
same,"Stoichiometry, N","[11]; SbSOMT mutant H282N/D283A, ITC",0.61 ± 0.17
same,Kd,[12],1.31 µM
same,"Stoichiometry, N","[12]; SbSOMT mutant D283A, ITC",0.58 ± 0.01
same,Kd,[13],11.1 ± 0.75 µM
same,"Stoichiometry, N","[13]; SbSOMT mutant E342A, ITC",0.75 ± 0.01
same,Kd,[14],18.5 ± 2.58 µM
same,"Stoichiometry, N",[14]; SbSOMT mutant E310A,0.36 ± 0.04
same,SOMT activities,[15],complete abolishment of SOMT activities
same,Kd,[16],1.55 µM
same,Kd,[17],No binding
same,Kd,[17]; listed as resveratrol,undetectable binding affinities
same,SOMT activities with resveratrol as substrate,[18],minimal SOMT activities
same,"resveratrol 3,5-bis-O-methylation activities",[19]; two-hour incubation with 100 μM resveratrol,"poor resveratrol 3,5-bis-O-methylation activities"
COc1cc(/C=C/C(=O)SCCNC(=O)CCNC(=O)[C@H](O)C(C)(C)COP(=O)(O)OP(=O)(O)OC[C@H]2O[C@@H](n3cnc4c(N)ncnc43)[C@H](O)[C@@H]2OP(=O)(O)O)ccc1O [feruloyl-CoA],stilbene formation from CoA starter substrate,[20],failed to generate isorhapontigenin
"Oc1cc(O)cc(/C=C/c2ccc(O)c(O)c2)c1 [Piceatannol, piceatannol]",Kd,[16],1.26 µM
same,conversion of piceatannol into isorhapontigenin (3′-O-methylation in the B-ring),[19]; two-hour reaction with 100 μM piceatannol,ca. 60%
"COc1cc(O)cc(/C=C/c2ccc(O)cc2)c1 [Pinostilbene, pinostilbene]",Kd,"[3]; ITC, 25° C., SbSOMT WT, mean ± standard error from curve fitting, read-out: Kd",2.86 µM
same,Kd,[7],5.57 ± 0.77 µM
same,Specific activity,[21],3.46 ± 0.27 nmol/min/mg
same,kcat,[21],0.00233 ± 0.00017 s⁻¹
same,Km,[21]; [24],3.14 ± 1.4 µM
same,"Stoichiometry, N",[14]; SbSOMT mutant E310A,0.59 ± 0.01
same,Kd,"[14]; SbSOMT mutant E310A, ± SE, read-out: Kd",3.91 ± 0.33 µM
same,Kd,"[16]; ITC, 25° C., SbCOMT WT, mean ± standard error from curve fitting, read-out: Kd",1.79 µM
same,Specific activity,[22],290.04 ± 5.64 nmol/min/mg
same,kcat,[22],0.1717 ± 0.00333 s⁻¹
same,Km,[22]; [24],4.62 ± 0.46 µM
B1,binding result,[23],binds
